Like-named read-outs stand apart in the source and are kept apart here.
Assays:
[1] = Kinetic solubility measurement in pure water; assay type: physicochemical; conditions: for pH: pH of the aqueous solubility sample; for Aqueous solubility: pure water, ambient room temperature, 20 minutes, expressed as free base
Method: Typically 1-5 mg of samples were diluted to 10 mL with sample solvent (1:1 (v:v) Mobile phase A:Mobile phase B) and the assay concentrations were determined from an average of duplicate injections using the following HPLC method. The purity and impurity analyses are done using conventional HPLC.
The free base and the salts listed in the table below were added in excess (saturation) to water in a 2.0 mL glass vial. The samples were put on an end-to-end rotator (50 rpm) at ambient room temperature up to 20 minutes. After 20 minutes, a sampling was taken for HPLC analysis.

[2] = Gravimetric vapor sorption (GVS); assay type: physicochemical; conditions: for hygroscopicity: adsorption and desorption curves overlap; for XRPD after GVS analysis: form change after GVS cycles
Method: GVS experiments have been carried out using the DVS-HT instrument (Surface Measurement Systems, London, UK). This instrument measures the uptake and loss of vapor gravimetrically using a recording ultra-microbalance with a mass resolution of ±0.1 μg. The vapor partial pressure (±1.0%) around the sample is controlled by mixing saturated and dry carrier gas streams using electronic mass flow controllers. The desired temperature is maintained at ±0.1° C. The samples (1-10 mg) were placed into the DVSHT and DVS-1 instruments at the desired temperature. The sample was loaded and unloaded at 40% RH and 25° C. (typical room conditions). A moisture sorption isotherm was performed as outlined below (2 scans giving 1 complete cycle). The software uses a least squares minimization procedure together with a model of the mass relaxation, to predict an asymptotic value. The measured mass equilibration value must be within 2% of that predicted by the software before the next % RH value is selected. The minimum equilibration time was set to 1 hour and the maximum to 4 hours.

[3] = Solid-state stress stability at 40° C./75% RH; assay type: physicochemical; conditions: for Area Purity / HPLC Assay / XRPD: 40° C./75% RH; for solid state stability: 40° C./75% relative humidity without desiccant
Method: Typically 1-5 mg of samples were diluted to 10 mL with sample solvent (1:1 (v:v) Mobile phase A:Mobile phase B) and the assay concentrations were determined from an average of duplicate injections using the following HPLC method. The purity and impurity analyses are done using conventional HPLC. Samples of Compound I free base and its salts (approximately 10 mg each) were stored at 40° C./75% RH in open glass vials (4 cm^3) over four weeks without desiccant. Stress stability studies were performed to get a timely impression of the influence of temperature and humidity on Form stability.

BRAF V600E [4] = target: T1, BRAF V600E (Homo sapiens, UniProt P15056, V600E); assay: BRAF V600E inhibition in isolated systems; assay type: biochemical; conditions: in vitro
BRAF V600E [5] = target: T1, BRAF V600E; assay: BRAF V600E inhibition in intact cells; assay type: cell-based; conditions: in vitro
[6] = Solubility of Form A0 in organic solvents at the boiling point; assay type: physicochemical; conditions: for solubility: organic solvent or mixture, thermodynamic from solid, read-out: Solubility Estimate at The Boiling Point
Method: The following procedure was used to assess the solubility of the anhydrous free base of Compound I (Form A0) in a range of nine organic solvents listed in Table 3. Using 1.8 mL HPLC vials, approximately 10 mg of Form A0 was stirred at the boiling point in 200 μL of nine different solvents. […] The additions were stopped when the solid dissolved or when 1000 μL had been dispensed. […] Methyl t-butyl ether was chosen as an anti-solvent (<10 mg/mL).

[7] = Methyl-t-butyl Ether, 55.2 ° C.

T1 sequence (P15056 whole entry V600E): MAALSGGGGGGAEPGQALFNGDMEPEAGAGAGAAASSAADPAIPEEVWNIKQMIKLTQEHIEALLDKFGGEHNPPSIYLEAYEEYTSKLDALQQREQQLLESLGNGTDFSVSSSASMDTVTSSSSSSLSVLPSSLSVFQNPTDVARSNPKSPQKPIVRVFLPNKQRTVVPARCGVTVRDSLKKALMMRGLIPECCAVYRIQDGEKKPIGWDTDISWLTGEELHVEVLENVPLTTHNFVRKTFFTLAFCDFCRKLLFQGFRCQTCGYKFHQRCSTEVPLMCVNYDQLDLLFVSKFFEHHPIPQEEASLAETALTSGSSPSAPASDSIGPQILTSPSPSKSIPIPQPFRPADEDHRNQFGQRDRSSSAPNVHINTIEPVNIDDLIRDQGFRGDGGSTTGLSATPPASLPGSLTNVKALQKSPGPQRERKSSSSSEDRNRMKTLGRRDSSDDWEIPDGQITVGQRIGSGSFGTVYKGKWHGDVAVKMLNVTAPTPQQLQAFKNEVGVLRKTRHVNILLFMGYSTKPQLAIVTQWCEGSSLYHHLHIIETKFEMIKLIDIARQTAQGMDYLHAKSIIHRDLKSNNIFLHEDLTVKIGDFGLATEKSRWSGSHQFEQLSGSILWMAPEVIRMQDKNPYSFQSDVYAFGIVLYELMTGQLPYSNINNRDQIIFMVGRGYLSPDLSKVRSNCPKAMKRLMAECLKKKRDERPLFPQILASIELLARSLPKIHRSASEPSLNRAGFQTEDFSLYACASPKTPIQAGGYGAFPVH

| SMILES | pH [1] | Aqueous solubility [1] [mg/mL] | amount of moisture adsorbed at 75% RH ([2]; 25° C.) | GVS: Percent increase in mass at 90% RH ([2]; 25° C.) [%] | hygroscopicity [2] | XRPD after GVS analysis [2] | Area Purity ([3]; 0 days) [%] | HPLC Assay ([3]; 0 days) [%] | XRPD ([3]; 0 days) | Area Purity ([3]; 14 days) [%] | HPLC Assay ([3]; 14 days) [%] | XRPD ([3]; 14 days) | Area Purity ([3]; 28 days) [%] | HPLC Assay ([3]; 28 days) [%] | XRPD ([3]; 28 days) | solid state stability ([3]; 28 days) | further results |
| --- | --- | --- | --- | --- | --- | --- | --- | --- | --- | --- | --- | --- | --- | --- | --- | --- | --- |
| COc1cc2ncnc(Oc3cccc(NC(=O)Nc4cc(C(C)(C)C(F)(F)F)on4)c3)c2cc1OC [Bromide A1] | 6.6 | 0.1 | less than 0.7% | 1.0 | not hygroscopic | No change | – | – | – | – | – | – | – | – | – | – | GVS: Percent increase in mass at 90% RH ([2]; 25° C., listed as Bromide Form A1): approximately 1%; XRPD after GVS analysis ([2]; listed as Bromide Form A1): compares nicely to the pattern of the material before GVS |
| COc1cc2ncnc(Oc3cccc(NC(=O)Nc4cc(C(C)(C)C(F)(F)F)on4)c3)c2cc1OC.Cl [Chloride A1] | 7.3 | 0.56 | – | 1.7 | – | No change | 99.5 | 99.9 | Form A1 | 97.6 | 98.7 | Form A1 | 96.4 | 100.4 | Form A1 | stable for 28 days | dissolution in pure water, ranking of salts ([1]; pure water (pH=7)): best salt for dissolution in pure water; XRPD after GVS analysis ([2]; listed as Chloride Form A1): No form change occurred; Area Purity ([3]; 7 days): 98.7%; HPLC Assay ([3]; 7 days): 98.3%; XRPD ([3]; 7 days): Form A1 |
| COc1cc2ncnc(Oc3cccc(NC(=O)Nc4cc(C(C)(C)C(F)(F)F)on4)c3)c2cc1OC [Compound I, 1-[3-(6,7-dimethoxy-quinazolin-4-yloxy)-phenyl]-3-[5-(2,2,2-trifluoro-1,1-dimethyl-ethyl)-isoxazol-3-yl]-urea] | – | – | – | – | – | – | – | – | – | – | – | – | – | – | – | – | inhibits BRAF V600E (BRAF V600E [4]): low nanomolar concentrations; inhibits BRAF V600E (BRAF V600E [5]): low nanomolar concentrations |
| COc1cc2ncnc(Oc3cccc(NC(=O)Nc4cc(C(C)(C)C(F)(F)F)on4)c3)c2cc1OC [Form A0] | 7.4 | – | – | 1.3 | – | compares nicely to the pattern of the material before GVS | 98.3 | 100.0 | Form A0 | 98.5 | 100.5 | Form A0 | 98.2 | 102.4 | Form A0 | stable for 28 days | Solubility Estimate at The Boiling Point [6, 7]: <10 mg/mL; solubility ([6]; Acetone, 56.5 ° C.): > 50 mg/mL; solubility ([6]; Acetonitrile, 82.0 ° C.): < 20 mg/mL; solubility ([6]; Chloroform, 61.2 ° C.): > 50 mg/mL; solubility ([6]; Dichloromethane, 40.0 ° C.): > 20 mg/mL; solubility ([6]; Ethyl Acetate, 77.1 ° C.): < 30 mg/mL; solubility ([6]; Methanol, 64.7 ° C.): < 20 mg/mL; solubility [6, 7]: < 10 mg/mL; solubility ([6]; Tetrahydrofuran, 66.0 ° C.): > 50 mg/mL; solubility ([6]; Toluene, 110.6 ° C.): < 30 mg/mL; Aqueous solubility ([1]; listed as Free base A0): <0.01 mg/mL; XRPD after GVS analysis ([2]; listed as A0): No change; moisture uptake ([2]; from 40 to about 90% RH): less than 1.3 % (w/w); Area Purity ([3]; 6 days): 98.5%; HPLC Assay ([3]; 6 days): 102.3%; XRPD ([3]; 6 days): Form A0 |
| COc1cc2ncnc(Oc3cccc(NC(=O)Nc4cc(C(C)(C)C(F)(F)F)on4)c3)c2cc1OC.O=C(O)CC(=O)O [Malonate A1] | 6.6 | 0.07 | – | – | – | No form change occurred | – | – | – | – | – | – | – | – | – | – | total uptake of water ([2]; RH range of 0-90%, 25° C.): < 4% |
| COc1cc2ncnc(Oc3cccc(NC(=O)Nc4cc(C(C)(C)C(F)(F)F)on4)c3)c2cc1OC.O=P(O)(O)O [Phosphate A1] | 6.8 | 0.09 | less than 1.8% | 2.7 | not hygroscopic | No change | – | – | – | – | – | – | – | – | – | – | GVS: Percent increase in mass at 90% RH ([2]; 25° C., listed as phosphate Form A1): approximately 2.7%; XRPD after GVS analysis ([2]; listed as phosphate Form A1): compares nicely to the pattern of the material before GVS |

From US9718810B2, “Solid state forms of a quinazoline derivative and its use as a BRAF inhibitor” (Ignyta, Inc., priority 2013, dated 2017)
